Source: patent US10239843B2 (CANCER RESEARCH TECHNOLOGY LIMITED, priority 2014, dated 2019)
Where two headings read alike, the source gives them in different places.

What was measured:
PARG in HeLa cell line = test: PARG cell assay (PAR chain immunofluorescence after MMS); format: cell-based; conditions: HeLa cells
Method in brief: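 Nuclear poly(ADP-ribose) chains in HeLa cells are read by indirect immunofluorescence with a mouse anti-PAR antibody applied overnight at 4° C after fixing and permeabilising. Cells get 1 h of compound, then 50 μg/mL MMS (final) for another hour. PAR persisting at that point reflects PARG inhibition.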

Human Full Length PARG = Human Full Length PARG (Homo sapiens (Human), UniProt Q86W56); test: PARG enzyme assay (TR-FRET); format: biochemical
Human Full Length PARG, sequence (Q86W56 whole entry): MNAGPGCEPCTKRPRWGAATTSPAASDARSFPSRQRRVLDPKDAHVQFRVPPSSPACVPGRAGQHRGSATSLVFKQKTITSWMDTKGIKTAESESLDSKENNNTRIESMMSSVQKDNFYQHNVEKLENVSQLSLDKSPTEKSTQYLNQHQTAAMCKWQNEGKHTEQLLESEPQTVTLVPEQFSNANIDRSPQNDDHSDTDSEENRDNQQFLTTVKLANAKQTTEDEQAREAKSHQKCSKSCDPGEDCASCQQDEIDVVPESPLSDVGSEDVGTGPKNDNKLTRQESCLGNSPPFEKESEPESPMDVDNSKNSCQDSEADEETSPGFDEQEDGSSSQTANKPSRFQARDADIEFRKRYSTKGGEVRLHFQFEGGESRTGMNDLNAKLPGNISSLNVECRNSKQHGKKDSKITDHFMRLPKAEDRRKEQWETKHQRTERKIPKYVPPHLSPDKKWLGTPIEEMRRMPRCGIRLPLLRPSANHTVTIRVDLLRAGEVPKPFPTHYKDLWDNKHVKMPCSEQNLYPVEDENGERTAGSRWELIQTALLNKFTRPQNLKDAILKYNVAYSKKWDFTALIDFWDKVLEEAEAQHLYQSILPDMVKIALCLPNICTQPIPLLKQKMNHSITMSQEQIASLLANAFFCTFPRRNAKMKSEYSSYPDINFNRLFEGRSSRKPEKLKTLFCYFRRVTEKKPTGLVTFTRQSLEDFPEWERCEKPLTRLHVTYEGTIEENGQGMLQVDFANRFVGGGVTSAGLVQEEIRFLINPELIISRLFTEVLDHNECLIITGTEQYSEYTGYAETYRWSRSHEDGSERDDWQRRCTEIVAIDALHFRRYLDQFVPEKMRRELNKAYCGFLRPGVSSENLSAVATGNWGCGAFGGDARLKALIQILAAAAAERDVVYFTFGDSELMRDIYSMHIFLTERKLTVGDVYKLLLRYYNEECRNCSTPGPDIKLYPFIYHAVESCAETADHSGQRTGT

[1] = Homo sapiens, MMS treatment, read-out: PARG Cell IC50
[2] = Homo sapiens, MMS 50 μg/mL, read-out: PARG Cell IC50 Geomean
[3] = read-out: PARG Biochem IC50 Geomean
[4] = MMS 50 μg/mL, read-out: PARG Cell IC50 Geomean
[5] = MMS treatment, read-out: PARG Cell IC50

Row | IC50 (PARG in HeLa cell line; [1]) | IC50 (Human Full Length PARG; read-out: PARG Biochem IC50) | IC50 (PARG in HeLa cell line; [2]) | IC50 (Human Full Length PARG; [3]) | further results | Compound
1 | 295 nM | 788 nM |  |  |  | Cc1cc(Cn2c(=O)c3cc(S(=O)(=O)NC4(CF)CC4)ccc3n(C(F)F)c2=O)on1 [Example 604, 1-(Difluoromethyl)-N-[1-(fluoromethyl)cyclopropyl]-3-[(3-methylisoxazol-5-yl)methyl]-2,4-dioxo-quinazoline-6-sulfonamide]
2 |  |  | 153 nM | 109 nM |  | C#CCn1c(=O)n(Cc2c(C)noc2C)c(=O)c2cc(S(=O)(=O)NC3(C)CC3)ccc21 [Example 159]
3 |  |  |  | 224 nM | IC50 (PARG in HeLa cell line; [4]): 314 nM | CN(C)CCn1c(=O)n(Cc2cnn(C)c2)c(=O)c2cc(S(=O)(=O)NC3(C)CC3)ccc21 [Example 235]
4 | 1130 nM | 3340 nM |  |  |  | Cc1ncc(Cn2c(=O)c3cc(S(=O)(=O)NC4(C)CC4)ccc3n(C)c2=O)cn1 [Example 433, 1-Methyl-N-(1-methylcyclopropyl)-3-[(2-methylpyrimidin-5-yl)methyl]-2,4-dioxo-quinazoline-6-sulfonamide]
5 |  | 2670 nM |  |  | IC50 (PARG in HeLa cell line; [5]): 5490 nM | CC1(NS(=O)(=O)c2ccc3[nH]c(=O)n(CCC#N)c(=O)c3c2)CC1 [Example 496, 3-(2-Cyanoethyl)-N-(1-methylcyclopropyl)-2,4-dioxo-1H-quinazoline-6-sulfonamide]
6 |  |  | 487 nM | 479 nM |  | Cc1cc(Cn2c(=O)c3cc(S(=O)(=O)NC4(C)CC4)ccc3n(C3COC3)c2=O)on1 [Example 339]
7 | 1250 nM | 325 nM |  |  |  | Cc1cc(Cn2c(=O)n(Cc3cnn(C)c3)c(=O)c3cc(S(=O)(=O)NC4(C(F)F)CC4)ccc32)n(C)n1 [Example 459, N-[1-(Difluoromethyl)cyclopropyl]-1-[(2,5-dimethylpyrazol-3-yl)methyl]-3-[(1-methylpyrazol-4-yl)methyl]-2,4-dioxo-quinazoline-6-sulfonamide]
8 |  |  |  | 356 nM | IC50 (PARG in HeLa cell line; [4]): 15200 nM | Cc1cc(Cn2c(=O)[nH]c3ccc(S(=O)(=O)NC4(C#N)CC4)cc3c2=O)on1 [Example 228, N-(1-Cyanocyclopropyl)-3-[(3-methylisoxazol-5-yl)methyl]-2,4-dioxo-1H-quinazoline-6-sulfonamide]
9 | 855 nM | 225 nM |  |  |  | Cc1nnc(Cn2c(=O)n(Cc3cnn(C)c3)c(=O)c3cc(S(=O)(=O)NC4(CF)CC4)ccc32)o1 [Example 567, N-[1-(Fluoromethyl)cyclopropyl]-1-[(5-methyl-1,3,4-oxadiazol-2-yl)methyl]-3-[(1-methylpyrazol-4-yl)methyl]-2,4-dioxo-quinazoline-6-sulfonamide]
10 |  |  | 17 nM | 11 nM |  | Cc1nc(C)c(Cn2c(=O)n(Cc3cnn(C)c3)c(=O)c3cc(S(=O)(=O)NC4(C)CC4)c(F)cc32)s1 [Example 396, 1-[(2,4-Dimethylthiazol-5-yl)methyl]-7-fluoro-N-(1-methylcyclopropyl)-3-[(1-methylpyrazol-4-yl)methyl]-2,4-dioxo-quinazoline-6-sulfonamide]
11 |  |  | 455 nM | 307 nM |  | Cc1cc(Cn2nc(C(C)C)c3ccc(S(=O)(=O)NC4(C)CC4)cc3c2=O)on1 [Example 310]
12 |  |  | 14300 nM | 124 nM |  | Cn1cc(Cn2c(=O)c3cc(S(=O)(=O)NC4(C#N)CC4)ccc3n(CC3(C)COC3)c2=O)cn1 [Example 376]
13 | 420 nM | 310 nM |  |  |  | Cn1cc(Cn2c(=O)c3cc(S(=O)(=O)NC4(CF)CC4)ccc3n(CC#N)c2=O)cn1 [Example 439, 1-(Cyanomethyl)-N-[1-(fluoromethyl)cyclopropyl]-3-[(1-methylpyrazol-4-yl)methyl]-2,4-dioxo-quinazoline-6-sulfonamide]
14 | 165 nM | 23 nM |  |  |  | Cc1cc(Cn2c(=O)n(Cc3cnn(C)c3)c(=O)c3cc(S(=O)(=O)NC4(CF)CC4)ccc32)n(C)n1 [Example 437, 1-[(2,5-Dimethylpyrazol-3-yl)methyl]-N-[1-(fluoromethyl)cyclopropyl]-3-[(1-methylpyrazol-4-yl)methyl]-2,4-dioxo-quinazoline-6-sulfonamide]
15 |  | 261 nM |  |  | IC50 (PARG in HeLa cell line; [5]): 376 nM | CCCCn1c(=O)n(Cc2cc(C)no2)c(=O)c2cc(S(=O)(=O)NC3(CF)CC3)ccc21 [Example 536, 1-Butyl-N-[1-(fluoromethyl)cyclopropyl]-3-[(3-methylisoxazol-5-yl)methyl]-2,4-dioxo-quinazoline-6-sulfonamide]
16 |  |  | 98 nM | 57 nM |  | Cn1cc(Cn2c(=O)c3cc(S(=O)(=O)NC4(C)CC4)ccc3n(CC3CCOCC3)c2=O)cn1 [Example 269]
17 | 2070 nM | 728 nM |  |  |  | Cn1cc(CN2C(=O)c3cccc4cc(S(=O)(=O)NC5(C)CC5)cc(c34)C2=O)cn1 [Example 454, N-(1-Methylcyclopropyl)-2-[(1-methylpyrazol-4-yl)methyl]-1,3-dioxo-benzo[de]isoquinoline-5-sulfonamide]
18 |  |  | 226 nM | 47 nM |  | Cn1cc(Cn2c(=O)c3cc(S(=O)(=O)NC4(C)CC4)ccc3n(CC3(C)COC3)c2=O)cn1 [Example 294]

Row | IC50 (PARG in HeLa cell line; [1]) | IC50 (Human Full Length PARG; read-out: PARG Biochem IC50) | IC50 (PARG in HeLa cell line; [2]) | IC50 (Human Full Length PARG; [3]) | further results | Compound
19 | 86 nM | 49 nM |  |  |  | Cc1cc(Cn2c(=O)c3cc(S(=O)(=O)NC4(CF)CC4)ccc3n(Cc3cnn(C)c3)c2=O)on1 [Example 555, N-[1-(Fluoromethyl)cyclopropyl]-3-[(3-methylisoxazol-5-yl)methyl]-1-[(1-methylpyrazol-4-yl)methyl]-2,4-dioxo-quinazoline-6-sulfonamide]
20 | 18900 nM | 13400 nM |  |  |  | Cn1c(=O)n(Cc2ccnnc2)c(=O)c2cc(S(=O)(=O)NC3(C)CC3)ccc21 [Example 446, 1-Methyl-N-(1-methylcyclopropyl)-2,4-dioxo-3-(pyridazin-4-ylmethyl)quinazoline-6-sulfonamide]
21 |  |  |  | 97 nM | IC50 (PARG in HeLa cell line; [4]): 161 nM | Cn1cc(Cn2c(=O)c3cc(S(=O)(=O)NC4(C)CC4)ccc3n(CCN3CCOCC3)c2=O)cn1 [Example 271]
22 |  | 171 nM |  |  | IC50 (PARG in HeLa cell line; [5]): 25800 nM | Cn1cc(Cn2c(=O)c3cc(S(=O)(=O)NC4(CF)CC4)ccc3n(Cc3nncn3C)c2=O)cn1 [Example 584, N-[1-(Fluoromethyl)cyclopropyl]-3-[(1-methylpyrazol-4-yl)methyl]-1-[(4-methyl-1,2,4-triazol-3-yl)methyl]-2,4-dioxo-quinazoline-6-sulfonamide]
23 | 7980 nM | 207 nM |  |  |  | Cn1cc(Cn2c(=O)c3cc(S(=O)(=O)NC4(CF)CC4)ccc3n(Cc3nc[nH]n3)c2=O)cn1 [Example 587, N-[1-(Fluoromethyl)cyclopropyl]-3-[(1-methylpyrazol-4-yl)methyl]-2,4-dioxo-1-(1H-1,2,4-triazol-3-ylmethyl)quinazoline-6-sulfonamide]
24 |  |  | 358 nM | 229 nM |  | Cn1cc(Cn2c(=O)c3cc(S(=O)(=O)NC4(C)CC4)ccc3n(CC3CC(C)(C)O3)c2=O)cn1 (stereo not shown) [Example 351]
25 |  |  | 187 nM | 256 nM |  | Cn1cc(Cn2c(=O)c3cc(S(=O)(=O)NC4(C)CC4)ccc3n(CCCOC(F)(F)F)c2=O)cn1 [Example 264]
26 | 257 nM | 44 nM |  |  |  | Cn1cc(Cn2c(=O)c3cc(S(=O)(=O)NC4(C)CC4)c(F)cc3n(CC3(C)COC3)c2=O)cn1 [Example 398, 7-Fluoro-3-((1-methyl-1H-pyrazol-4-yl)methyl)-N-(1-methylcyclopropyl)-1-((3-methyloxetan-3-yl)methyl)-2,4-dioxo-1,2,3,4-tetrahydroquinazoline-6-sulfonamide]
27 |  |  | 382 nM | 353 nM |  | Cc1cc(Cn2c(=O)c3cc(S(=O)(=O)NC4(C)CC4)ccc3n(CC3CC(F)(F)C3)c2=O)on1 [Example 363]
28 | 171 nM | 284 nM |  |  |  | Cc1ncc(Cn2c(=O)c3cc(S(=O)(=O)NC4(C)CC4)ccc3n(CC#N)c2=O)s1 [Example 502, 1-(Cyanomethyl)-N-(1-methylcyclopropyl)-3-[(2-methylthiazol-5-yl)methyl]-2,4-dioxo-quinazoline-6-sulfonamide]
29 |  |  | 272 nM | 331 nM |  | Cc1cc(Cn2c(=O)c3cc(S(=O)(=O)NC4(C)CC4)ccc3n(CC(F)F)c2=O)on1 [Example 324]
30 | 287 nM | 648 nM |  |  |  | Cn1cc(Cn2c(=O)c3cc(S(=O)(=O)NC4(CF)CC4)ccc3n(C)c2=O)cn1 [Example 408, N-[1-(Fluoromethyl)cyclopropyl]-1-methyl-3-[(1-methylpyrazol-4-yl)methyl]-2,4-dioxo-quinazoline-6-sulfonamide]
31 | 1440 nM | 609 nM |  |  |  | Cc1cc(Cn2c(=O)c3cc(S(=O)(=O)NC4(C)CC4)ccc3n(CC3CNC3)c2=O)on1 [Example 415, 1-(Azetidin-3-ylmethyl)-N-(1-methylcyclopropyl)-3-[(3-methylisoxazol-5-yl)methyl]-2,4-dioxo-quinazoline-6-sulfonamide]
32 |  |  | 1410 nM | 332 nM |  | Cc1cc(Cn2c(=O)c3cc(S(=O)(=O)NC4(C)CC4)ccc3n(CC3CCN(C)C3)c2=O)on1 (stereo not shown) [Example 361]
33 | 153 nM | 93 nM |  |  |  | Cc1nnc(Cn2c(=O)n(Cc3cnn(C)c3)c(=O)c3cc(S(=O)(=O)NC4(CF)CC4)ccc32)s1 [Example 583, N-[1-(Fluoromethyl)cyclopropyl]-3-[(1-methylpyrazol-4-yl)methyl]-1-[(5-methyl-1,3,4-thiadiazol-2-yl)methyl]-2,4-dioxo-quinazoline-6-sulfonamide]
34 |  |  |  | 296 nM | IC50 (PARG in HeLa cell line; [4]): 214 nM | Cc1cc(Cn2c(=O)c3cc(S(=O)(=O)NC4(C)CC4)ccc3n(CC3CCCCO3)c2=O)on1 (stereo not shown) [Example 266]
35 | 351 nM | 159 nM |  |  |  | Cc1cc(Cn2c(=O)c3cc(S(=O)(=O)NC4(CF)CC4)ccc3n(Cc3nncs3)c2=O)on1 [Example 627, N-[1-(Fluoromethyl)cyclopropyl]-3-[(3-methylisoxazol-5-yl)methyl]-2,4-dioxo-1-(1,3,4-thiadiazol-2-ylmethyl)quinazoline-6-sulfonamide]
